Assay: Waters ACQUITY UPLC BEH C18, 100 × 2.1 mm, 1.7 µm, 40 °C, 0.3 to 0.4 mL/min, estimated dead time 0.63 min; A: water + 0.1% formic acid; B: methanol + 0.1% formic acid; gradient (min/%B) 0/0.5 0.1/0.5 10/80 10.1/99.5 12/99.5
Details: stereoisomer not certain

SMILES: CC=C1CN(C)C2Cc3c([nH]c4ccccc34)C(c3cc4[nH]c5c(c4cc3OC)CCN3CC4CC(CC)C3C5(C(=O)OC)C4)CC1C2C(=O)OC (stereo not given)
- LC retention time: 4.94 min

SMILES: COc1cc(C=CC=O)cc(OC)c1O
- LC retention time: 4.73 min

SMILES: COc1cc2c(cc1OC)C(C)=NCC2
- LC retention time: 2.93 min

SMILES: O=c1cc(-c2ccc(O)cc2)oc2cc(OC3OC(CO)C(O)C(O)C3O)c(C3OC(CO)C(O)C(O)C3O)c(O)c12 (stereo not given)
- LC retention time: 3.52 min

SMILES: CCCCCC(=O)OC1C(OC2(CO)OC(CO)C(OC(C)=O)C2O)OC(CO)C(OC(=O)CCCC)C1OC(=O)CCCC (stereo not given)
- LC retention time: 9.02 min

SMILES: COc1cc(-c2oc3cc(O)cc(O)c3c(=O)c2OC2OC(CO)C(O)C(O)C2O)cc(OC)c1O (stereo not given)
- LC retention time: 4.36 min

SMILES: CC1OC(Oc2cc(O)c3c(=O)c(OC4OC(CO)C(O)C(O)C4OC4OC(C)C(O)C(O)C4O)c(-c4ccc(O)c(O)c4)oc3c2)C(O)C(O)C1O (stereo not given)
- LC retention time: 3.09 min

SMILES: O=c1cc(-c2ccc(O)c(O)c2)oc2c(C3OCC(O)C(O)C3O)c(O)c(C3OC(CO)C(O)C(O)C3O)c(O)c12 (stereo not given)
- LC retention time: 3.35 min

SMILES: CC1OC(OC2C(COC3OC(CO)C(O)C(O)C3O)OC(OC3CCC4(C)C(CCC5(C)C4C=CC4=C6CC(C)(C)CCC6(CO)C(O)CC45C)C3(C)C)C(O)C2O)C(O)C(O)C1O (stereo not given)
- LC retention time: 6.29 min

SMILES: CC(=O)OC1CC(COC2OC(CO)C(O)C(O)C2O)CNC12OC1CC3C4CCC5CC(OC6OC(CO)C(OC7OC(CO)C(OC8OCC(O)C(O)C8O)C(O)C7OC7OC(CO)C(O)C(O)C7O)C(O)C6O)CCC5(C)C4CCC3(C)C1C2C (stereo not given)
- LC retention time: 3.59 min

SMILES: CC1CCC2(C(=O)OC3OC(COC4OC(CO)C(OC5OC(C)C(O)C(O)C5O)C(O)C4O)C(O)C(O)C3O)CCC3(C)C(=CCC4C5(C)CC(O)C(O)C(C)(CO)C5CCC43C)C2C1C (stereo not given)
- LC retention time: 5.21 min

SMILES: CCC12C=CCN3CCC4(C(=C(C(=O)OC)C1)Nc1ccccc14)C32 (stereo not given)
- LC retention time: 5.2 min

SMILES: CCC12C=CCN3CCc4c(n(c5ccccc45)C(O)(C(=O)OC)C1)C32 (stereo not given)
- LC retention time: 4.26 min

SMILES: Nc1[nH]c(=O)[nH]c(=O)c1OC1OC(CO)C(O)C(O)C1O (stereo not given)
- LC retention time: 2.01 min

SMILES: CC1(C)CCC2(C(=O)O)CCC3(C)C(=CCC4C5(C)CC(O)C(OC6OC(CO)C(OC7OC(CO)C(O)C(O)C7O)C(O)C6O)C(C)(CO)C5CCC43C)C2C1 (stereo not given)
- LC retention time: 7.01 min

SMILES: CCCCCCCC(O)SCC(NC(=O)CCC(N)C(=O)O)C(=O)NCC(=O)O (stereo not given)
- LC retention time: 4.58 min

SMILES: CC1CCC2(OC1)OC1C(O)C3C4CCC5CC(OC6OC(CO)C(OC7OC(CO)C(O)C(OC8OCC(O)C(O)C8O)C7OC7OC(CO)C(O)C(OC8OC(CO)C(O)C(O)C8O)C7O)C(O)C6O)C(O)CC5(C)C4CCC3(C)C1C2C (stereo not given)
- LC retention time: 6.99 min

SMILES: COc1cc(CC2COC(=O)C2Cc2ccc(O)c(OC)c2)ccc1O (stereo not given)
- LC retention time: 5.96 min

SMILES: CC1(C)CCC2(C(=O)O)CCC3(C)C(=CCC4C5(C)CCC(OC6OC(C(=O)O)C(O)C(OC7OC(CO)C(O)C(O)C7O)C6O)C(C)(CO)C5CCC43C)C2C1 (stereo not given)
- LC retention time: 7.55 min

SMILES: COc1cc(C(O)C(CO)Oc2c(OC)cc(-c3cc(=O)c4c(O)cc(O)cc4o3)cc2OC)ccc1O (stereo not given)
- LC retention time: 6.2 min

SMILES: C=CC12CN(C)C3CC14C(=Nc1ccccc14)C1CC2C3CO1 (stereo not given)
- LC retention time: 3.58 min

SMILES: CC=CS(=O)CC(NC(=O)CCC(NCC1(O)OCC(O)C(O)C1O)C(=O)O)C(=O)O (stereo not given)
- LC retention time: 1.83 min

SMILES: O=C(O)C(Cc1ccccc1)NCC1(O)OC(CO)C(O)C1O (stereo not given)
- LC retention time: 2.33 min

SMILES: COc1ccc(C2CC(=O)c3c(O)cc(OC4OC(CO)C(O)C(O)C4OC4OC(C)C(O)C(O)C4O)cc3O2)cc1O (stereo not given)
- LC retention time: 4.59 min

SMILES: O=C1CC(c2ccc(O)c(O)c2)Oc2cc(OC3OC(CO)C(O)C(O)C3O)cc(O)c21 (stereo not given)
- LC retention time: 4.09 min

SMILES: COc1cc(C2OCC3C(c4cc(OC)c(OC5OC(CO)C(O)C(O)C5O)c(OC)c4)OCC23)cc(OC)c1OC1OC(CO)C(O)C(O)C1O (stereo not given)
- LC retention time: 3.61 min

SMILES: CC(=O)N1CCCC1C(=O)O (stereo not given)
- LC retention time: 2.46 min

SMILES: CCC1C2CCN3CCC4(C(=C2C(=O)OC)Nc2ccccc24)C13 (stereo not given)
- LC retention time: 4.92 min

SMILES: Cc1cc2[nH]c(=O)c(=O)n(CC(O)C(O)C(O)CO)c2cc1C (stereo not given)
- LC retention time: 3.3 min

SMILES: C=CC1c2cc3n(c(=O)c2C2OC1OC1OC(CO)C(O)C(O)C1O2)CCc1c-3[nH]c2ccccc12 (stereo not given)
- LC retention time: 5.46 min

SMILES: CC1OC(OC2C(Oc3cc(O)c4c(c3)OC(c3ccc(O)cc3)CC4=O)OC(CO)C(O)C2O)C(O)C(O)C1O (stereo not given)
- LC retention time: 4.38 min

SMILES: Nc1ncnc2c1ncn2C1OC(CO)C(O)C1O (stereo not given)
- LC retention time: 1.88 min

SMILES: NCCc1c[nH]c2ccccc12
- LC retention time: 1.79 min

SMILES: COc1cc(C=CC(=O)NCCCCN=C(N)N)cc(OC)c1O
- LC retention time: 3.27 min

SMILES: CC(=O)OCC1OC(Oc2ccc3c(=O)c(-c4ccc(O)cc4)coc3c2)C(O)C(O)C1O (stereo not given)
- LC retention time: 4.57 min

SMILES: CCC(C)C(NC(=O)C([NH3+])C(C)C)C(=O)[O-] (stereo not given)
- LC retention time: 2.88 min

SMILES: C1CCC(C23CC(CC4CCCNC42)C2CCCCN2C3)NC1 (stereo not given)
- LC retention time: 2.24 min

SMILES: O=C(OC1Cc2c(O)cc(O)cc2OC1c1cc(O)c(O)c(O)c1)c1cc(O)c(O)c(O)c1 (stereo not given)
- LC retention time: 3.46 min

SMILES: CC(C)CC(NC(=O)C(N)CO)C(=O)O (stereo not given)
- LC retention time: 2.38 min

SMILES: CC(=O)NC(CC(C)C)C(=O)O (stereo not given)
- LC retention time: 3.81 min

SMILES: O=C(C=Cc1ccc(O)cc1)Oc1cc(O)c2c(=O)c(OC3OC(CO)C(O)C(O)C3O)c(-c3ccc(O)cc3)oc2c1 (stereo not given)
- LC retention time: 2.35 min

SMILES: CCC(O)(C(=O)O)c1cc2n(c(=O)c1COC(C)=O)Cc1cc3ccccc3nc1-2 (stereo not given)
- LC retention time: 5.4 min

SMILES: O=C(C=CC=Cc1ccc2c(c1)OCO2)N1CCCCC1
- LC retention time: 7.84 min

SMILES: Oc1ccc(C2Oc3cc(O)cc(O)c3CC2O)cc1 (stereo not given)
- LC retention time: 4.91 min

SMILES: C=C1CCCC2(C)CC3(O)OC(=O)C(C)=C3CC12 (stereo not given)
- LC retention time: 7.91 min

SMILES: CS(=O)CCCCCCCCC#N (stereo not given)
- LC retention time: 3.03 min

SMILES: CS(=O)CCCCC(=NOS(=O)(=O)O)SC1OC(CO)C(O)C(O)C1O (stereo not given)
- LC retention time: 1.74 min

SMILES: COc1cc2c(cc1OC)C1C(C)c3ccc(OC)c(OC)c3CN1CC2 (stereo not given)
- LC retention time: 4.86 min

SMILES: Cc1ccc([N+](=O)[O-])cc1N
- LC retention time: 2.34 min

SMILES: COc1ccc(-c2cc(=O)c3c(OC)cc(OC)c(-c4cc(-c5cc(=O)c6c(OC)cc(OC)cc6o5)ccc4OC)c3o2)cc1
- LC retention time: 7.39 min

SMILES: O=c1cc(-c2ccc(O)cc2)oc2c(C3OC(CO)C(O)C(O)C3O)c(O)c(C3OC(CO)C(O)C(O)C3O)c(O)c12 (stereo not given)
- LC retention time: 3.3 min

SMILES: CCC(C)C(NCC1(O)OCC(O)C(O)C1O)C(=O)NC(CCC(=O)O)C(=O)O (stereo not given)
- LC retention time: 2.07 min

SMILES: COc1cc2c(cc1OC)-c1c(C)c3ccc(OC)c(OC)c3c[n+]1CC2
- LC retention time: 5.19 min

SMILES: COc1cc(-c2cc(=O)c3c(O)cc(OC4OC(COC(=O)CC(=O)O)C(O)C(O)C4O)cc3o2)ccc1O (stereo not given)
- LC retention time: 4.8 min

SMILES: O=C(C=Cc1ccc(O)cc1)OC1CC(O)(C(=O)O)CC(O)C1O (stereo not given)
- LC retention time: 3.08 min

SMILES: CC(CCC1(O)OC2CC3C4CCC5CC(OC6OC(CO)C(OC7OC(CO)C(O)C(O)C7OC7OC(CO)C(O)C(O)C7O)C(O)C6O)CCC5(C)C4CCC3(C)C2C1C)COC1OC(CO)C(O)C(O)C1O (stereo not given)
- LC retention time: 4.91 min

SMILES: CCC(C)C(NC(=O)C(N)Cc1ccccc1)C(=O)O (stereo not given)
- LC retention time: 3.79 min

SMILES: NCCCCNC(=O)C=Cc1ccccc1
- LC retention time: 3.7 min

SMILES: COc1ccc(-c2coc3cc(OC4OC(COC(=O)CC5CCNCC5)C(O)C(O)C4O)c(OC)cc3c2=O)cc1 (stereo not given)
- LC retention time: 4.67 min

SMILES: CCC=CCC=CC=CC(O)CCCCCCCC(=O)O (stereo not given)
- LC retention time: 9.1 min

SMILES: OCC1OC(Oc2cc3c(O)cc(O)cc3[o+]c2-c2ccc(O)c(O)c2)C(O)C(O)C1O (stereo not given)
- LC retention time: 2.91 min

SMILES: CC1OC(OC2C(O)C(C)OC(OCC3OC(Oc4c(-c5ccc(O)cc5)oc5cc(O)cc(O)c5c4=O)C(O)C(O)C3O)C2O)C(O)C(O)C1O (stereo not given)
- LC retention time: 3.98 min

SMILES: O=C1CC(c2ccc(O)cc2)Oc2c1c(O)cc(O)c2C1OC(CO)C(O)C(O)C1O (stereo not given)
- LC retention time: 3.04 min

SMILES: COc1ccc(-c2cc(=O)c3c(O)cc(OC4OC(COC5OC(C)C(O)C(O)C5O)C(O)C(O)C4O)cc3o2)cc1 (stereo not given)
- LC retention time: 5.19 min

SMILES: COc1ccccc1C=CC(=O)O
- LC retention time: 6.12 min

SMILES: CC1CCC2(NC1)OC1CC3C4CC=C5CC(OC6OC(CO)C(OC7OC(CO)C(O)C(OC8OCC(O)C(O)C8O)C7OC7OC(CO)C(O)C(O)C7O)C(O)C6O)CCC5(C)C4CCC3(C)C1C2C (stereo not given)
- LC retention time: 4.72 min

SMILES: Nc1ncnc2c1ncn2C1CC(O)C(CO)O1 (stereo not given)
- LC retention time: 1.93 min

SMILES: c1ccc2c(c1)[nH]c1cnccc12
- LC retention time: 3.48 min

SMILES: COc1cc(CC(=O)O)ccc1O
- LC retention time: 3.84 min

SMILES: Nc1nc2c(ncn2C2OC(CO)C(O)C2O)c(=O)[nH]1 (stereo not given)
- LC retention time: 1.93 min

SMILES: CCCCCCCCCCCCCCCC(=O)OCC(O)COP(=O)([O-])OCC[N+](C)(C)C (stereo not given)
- LC retention time: 9.91 min

SMILES: O=C(O)C1OC(Oc2ccc(-c3oc4cc(O)c(C5OC(CO)C(O)C(O)C5O)c(O)c4c(=O)c3C3OC(CO)C(O)C(O)C3O)cc2)C(O)C(O)C1O (stereo not given)
- LC retention time: 4.68 min

SMILES: O=C1NCCc2c1[nH]c1ccccc21
- LC retention time: 5.53 min

SMILES: CC1OC(Oc2c(-c3ccc(O)c(O)c3)oc3cc(O)cc(O)c3c2=O)C(OC2OC(COC(=O)C=Cc3ccc(O)cc3)C(O)C(O)C2O)C(O)C1O (stereo not given)
- LC retention time: 4.67 min

SMILES: CC1OC(Oc2cc(O)c3c(=O)c(OC4OC(CO)C(O)C(O)C4O)c(-c4ccc(O)cc4)oc3c2)C(O)C(O)C1O (stereo not given)
- LC retention time: 3.7 min

SMILES: Cc1c2ccncc2c(C)c2c1[nH]c1ccccc12
- LC retention time: 4.93 min

SMILES: COc1ccc(-c2cc(=O)c3c(O)cc(O)cc3o2)cc1O
- LC retention time: 6.78 min

SMILES: COc1c(CC=C(C)C)c(O)cc2oc(-c3ccc(O)cc3O)cc12
- LC retention time: 8.35 min

SMILES: COc1ccc(-c2oc3c(CC=C(C)C)c(OC4OC(CO)C(O)C(O)C4O)cc(O)c3c(=O)c2OC2OC(C)C(O)C(O)C2O)cc1 (stereo not given)
- LC retention time: 5.43 min

SMILES: CCC1CN2CCc3c([nH]c4cccc(OC)c34)C2CC1C(=COC)C(=O)OC (stereo not given)
- LC retention time: 5.54 min
